From PubChem BioAssay AID248 (DTP/NCI, 2004)
Several values for one entry are separate records, joined by “and”; a condition that tells them apart may be missing. Equal entries are not always repeated. Toxic doses and inconclusive results are not listed. No stated cut-off is given here; in the data, active means T/C of 150% or more; inactive means T/C below 125%.

Test system: L1210 leukemia ip in BDF1 mice, survival T/C
Test: NCI In Vivo Anticancer Drug Screen. Data for tumor model L1210 Leukemia (intraperitoneal) in B6D2F1 (BDF1) mice
Details: endpoint: mean survival time, higher = longer survival
Outline: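 In this screen, tumor-bearing mice given compound are compared to those given vehicle, and their survival values are reported as a treated-to-control quotient.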

[1] = dose: 100.0 mg/kg/injection, schedule: Q01DX001 (ip), vehicle: carboxymethylcellulose (CMC)
[2] = dose: 200.0 mg/kg/injection, schedule: Q01DX001 (ip), vehicle: carboxymethylcellulose (CMC)
[3] = dose: 400.0 mg/kg/injection, schedule: Q01DX001 (ip), vehicle: carboxymethylcellulose (CMC)
[4] = dose: 100.0 mg/kg/injection, schedule: Q01DX001 (ip), vehicle: saline
[5] = dose: 200.0 mg/kg/injection, schedule: Q01DX001 (ip), vehicle: saline
[6] = dose: 400.0 mg/kg/injection, schedule: Q01DX001 (ip), vehicle: saline
[7] = dose: 100.0 mg/kg/injection, schedule: Q01DX009 (ip), vehicle: Klucel (hydroxypropylcellulose) (HPC)
[8] = dose: 200.0 mg/kg/injection, schedule: Q01DX009 (ip), vehicle: Klucel (hydroxypropylcellulose) (HPC)
[9] = dose: 100.0 mg/kg/injection, schedule: Q04DX003 (ip), vehicle: saline
[10] = dose: 100.0 mg/kg/injection, schedule: Q04DX003 (ip), vehicle: Klucel (hydroxypropylcellulose) (HPC)
[11] = dose: 200.0 mg/kg/injection, schedule: Q04DX003 (ip), vehicle: Klucel (hydroxypropylcellulose) (HPC)
[12] = dose: 400.0 mg/kg/injection, schedule: Q04DX003 (ip), vehicle: Klucel (hydroxypropylcellulose) (HPC)
[13] = dose: 100.0 mg/kg/injection, schedule: Q01DX009 (ip), vehicle: saline with Tween-80
[14] = dose: 100.0 mg/kg/injection, schedule: Q04DX003 (ip), vehicle: saline with Tween-80
[15] = dose: 200.0 mg/kg/injection, schedule: Q01DX009 (ip), vehicle: saline with Tween-80
[16] = dose: 200.0 mg/kg/injection, schedule: Q04DX003 (ip), vehicle: saline with Tween-80
[17] = dose: 400.0 mg/kg/injection, schedule: Q01DX009 (ip), vehicle: saline with Tween-80
[18] = dose: 400.0 mg/kg/injection, schedule: Q04DX003 (ip), vehicle: saline with Tween-80
[19] = dose: 100.0 mg/kg/injection, schedule: Q01DX001 (ip), vehicle: saline with Tween-80

Measured: T/C

C/C(=C/C(=O)O)C(=O)Nc1cccc2c(NC(=O)/C(C)=C/C(=O)O)cccc12
inactive: [1] 95 % of control | [2] 96 % of control | [3] 96 % of control

CCN(CC)CC#N
inactive: dose: 1.0 mg/kg/injection, schedule: Q01DX009 (ip), vehicle: saline 97 % of control | dose: 2.0 mg/kg/injection, schedule: Q01DX009 (ip), vehicle: saline 99 % of control | dose: 4.0 mg/kg/injection, schedule: Q01DX009 (ip), vehicle: saline 95 % of control | dose: 8.0 mg/kg/injection, schedule: Q01DX009 (ip), vehicle: saline 100 % of control

Cl/C=C/CSc1ccccc1
inactive: [4] 100 % of control | [5] 103 % of control | [6] 100 % of control

CC(=O)OC1OCC(COC(=O)c2ccc([N+](=O)[O-])cc2)C1OC(=O)c1ccc([N+](=O)[O-])cc1 (stereo not drawn)
inactive: [4] 92 % of control | [5] 92 % of control | [6] 95 % of control

O=C(Nc1ccc(Br)cc1)Nc1ccccc1Cl
inactive: dose: 100.0 mg/kg/injection, schedule: Q04DX002 (ip), vehicle: saline + alcohol 100 % of control | dose: 200.0 mg/kg/injection, schedule: Q04DX002 (ip), vehicle: saline + alcohol 94 % of control | dose: 400.0 mg/kg/injection, schedule: Q04DX002 (ip), vehicle: saline + alcohol 96 % of control

Oc1ccc(Br)cc1/C=N/NC(=S)Nc1cccc2cccnc12
inactive: [5] 94 % of control | [6] 96 % of control

ClC(Cl)(Cl)c1cccc(-c2nc(NCCCN3CCCC3)nc(C(Cl)(Cl)Cl)n2)c1
inactive: [7] 102 % of control | [8] 100 % of control | dose: 400.0 mg/kg/injection, schedule: Q01DX009 (ip), vehicle: Klucel (hydroxypropylcellulose) (HPC) 86 % of control

CCN(C(=O)CCl)C(C)(C)C(SSSC(c1ccc(Cl)cc1)C(C)(C)N(CC)C(=O)CCl)c1ccc(Cl)cc1 (stereo not drawn)
inactive: [9] 95 % of control | dose: 200.0 mg/kg/injection, schedule: Q04DX003 (ip), vehicle: saline 91 % of control

COc1ccc(C)cc1NC(=O)OCCSc1ccc(Cl)cc1
inactive: dose: 50.0 mg/kg/injection, schedule: Q01DX009 (ip), vehicle: gum acacia 97 % of control and 102 % of control | dose: 100.0 mg/kg/injection, schedule: Q01DX001 (ip), vehicle: gum acacia 95 % of control and 97 % of control | dose: 100.0 mg/kg/injection, schedule: Q04DX002 (ip), vehicle: gum acacia 97 % of control and 91 % of control | dose: 100.0 mg/kg/injection, schedule: Q04DX003 (ip), vehicle: gum acacia 96 % of control and 97 % of control | dose: 200.0 mg/kg/injection, schedule: Q01DX001 (ip), vehicle: gum acacia 95 % of control and 100 % of control | dose: 200.0 mg/kg/injection, schedule: Q04DX002 (ip), vehicle: gum acacia 93 % of control | dose: 200.0 mg/kg/injection, schedule: Q04DX003 (ip), vehicle: gum acacia 92 % of control and 96 % of control | dose: 400.0 mg/kg/injection, schedule: Q01DX001 (ip), vehicle: gum acacia 94 % of control and 97 % of control | dose: 400.0 mg/kg/injection, schedule: Q01DX009 (ip), vehicle: gum acacia 88 % of control and 90 % of control | dose: 400.0 mg/kg/injection, schedule: Q04DX002 (ip), vehicle: gum acacia 98 % of control and 90 % of control | dose: 400.0 mg/kg/injection, schedule: Q04DX003 (ip), vehicle: gum acacia 100 % of control and 101 % of control

CC[N+](CC)(CCO)CCCCCCCCCC[N+](CC)(CC)CCO
inactive: dose: 0.15 mg/kg/injection, schedule: Q04DX003 (ip), vehicle: saline 100 % of control | dose: 0.3 mg/kg/injection, schedule: Q04DX003 (ip), vehicle: saline 103 % of control | dose: 0.6 mg/kg/injection, schedule: Q04DX003 (ip), vehicle: saline 105 % of control

C1CCC(P(C2CCCCC2)C2CCCCC2)CC1
inactive: [10] 93 % of control | [11] 93 % of control | [12] 89 % of control

ClCc1nc2ccccc2[nH]1
inactive: dose: 50.0 mg/kg/injection, schedule: Q01DX001 (ip), vehicle: saline 101 % of control | [4] 101 % of control | [10] 105 % of control | [5] 104 % of control | [11] 102 % of control | [6] 110 % of control | [12] 98 % of control

O=C(NCCBr)c1ccc(N=Nc2ccccc2)cc1
inactive: dose: 20.0 mg/kg/injection, schedule: Q01DX009 (ip), vehicle: Klucel (hydroxypropylcellulose) (HPC) 95 % of control | dose: 20.0 mg/kg/injection, schedule: Q04DX003 (ip), vehicle: Klucel (hydroxypropylcellulose) (HPC) 103 % of control | dose: 40.0 mg/kg/injection, schedule: Q01DX009 (ip), vehicle: Klucel (hydroxypropylcellulose) (HPC) 95 % of control | dose: 40.0 mg/kg/injection, schedule: Q04DX003 (ip), vehicle: Klucel (hydroxypropylcellulose) (HPC) 103 % of control | dose: 80.0 mg/kg/injection, schedule: Q01DX009 (ip), vehicle: Klucel (hydroxypropylcellulose) (HPC) 91 % of control | dose: 80.0 mg/kg/injection, schedule: Q04DX003 (ip), vehicle: Klucel (hydroxypropylcellulose) (HPC) 105 % of control

CCCCCCCCCCCCOc1ccc(C)cc1
inactive: [13] 97 % of control | [14] 88 % of control | [15] 93 % of control | [16] 88 % of control | [17] 97 % of control | [18] 93 % of control

O=C(Nc1ccccc1)Nc1cc(Cl)ccc1Cl
inactive: dose: 25.0 mg/kg/injection, schedule: Q04DX002 (ip), vehicle: Klucel (hydroxypropylcellulose) (HPC) 107 % of control | dose: 50.0 mg/kg/injection, schedule: Q04DX002 (ip), vehicle: Klucel (hydroxypropylcellulose) (HPC) 90 % of control | dose: 100.0 mg/kg/injection, schedule: Q04DX002 (ip), vehicle: Klucel (hydroxypropylcellulose) (HPC) 90 % of control

COc1cc2c(cc1OC)C13CCN4CC5=CCOC6CCN2C1C6C5CC43 (stereo not drawn)
inactive: dose: 25.0 mg/kg/injection, schedule: Q04DX003 (ip), vehicle: saline 101 % of control | dose: 50.0 mg/kg/injection, schedule: Q04DX003 (ip), vehicle: saline 109 % of control | [14] 86 % of control | [9] 106 % of control

C=CC[n+]1c(C)ccc2ccccc21
inactive: dose: 25.0 mg/kg/injection, schedule: Q01DX009 (ip), vehicle: saline with Tween-80 100 % of control | dose: 50.0 mg/kg/injection, schedule: Q01DX009 (ip), vehicle: saline with Tween-80 115 % of control | [19] 114 % of control

Cc1c2ccccc2c(C)c2c1cc(O)c1ccccc12
inactive: dose: 50.0 mg/kg/injection, schedule: Q01DX009 (ip), vehicle: Klucel (hydroxypropylcellulose) (HPC) 113 % of control | [7] 121 % of control

Clc1ccc2nsnc2c1Cl
inactive: [10] 95 % of control | [11] 98 % of control | [12] 98 % of control

CSC(=O)SC
inactive: [13] 101 % of control

O=C(NC(=S)Nc1ccc(Cl)c(Cl)c1)c1ccc(Cl)cc1Cl
inactive: [19] 93 % of control | [13] 97 % of control and 98 % of control | dose: 100.0 mg/kg/injection, schedule: Q04DX002 (ip), vehicle: saline with Tween-80 98 % of control and 90 % of control | [14] 93 % of control | dose: 200.0 mg/kg/injection, schedule: Q01DX001 (ip), vehicle: saline with Tween-80 89 % of control | [15] 91 % of control and 92 % of control | dose: 200.0 mg/kg/injection, schedule: Q04DX002 (ip), vehicle: saline with Tween-80 101 % of control | [16] 93 % of control | [17] 87 % of control and 91 % of control | dose: 400.0 mg/kg/injection, schedule: Q04DX002 (ip), vehicle: saline with Tween-80 95 % of control and 90 % of control | [18] 93 % of control

CCCCC(=O)N/N=C\c1cccc([N+](=O)[O-])c1
inactive: [1] 92 % of control | [2] 92 % of control | [3] 95 % of control

CCCOCC(O)CNCCN (stereo not drawn)
inactive: [7] 98 % of control | [8] 92 % of control

Oc1ccc(Cl)cc1C1N(Cc2ccc(N(CCCl)CCCl)cc2Cl)CCCN1Cc1ccc(N(CCCl)CCCl)cc1Cl
inactive: dose: 50.0 mg/kg/injection, schedule: Q01DX001 (ip), vehicle: carboxymethylcellulose (CMC) 113 % of control | [1] 96 % of control | [2] 105 % of control | [3] 96 % of control

CCC1([N+](=O)[O-])COP(=O)(NCc2ccncc2)OC1 (stereo not drawn)
inactive: [1] 98 % of control | [2] 98 % of control | [3] 96 % of control
